According to paper PMC5654082 (Malaria Journal, 2017):
Like-named read-outs stand apart in the source and are kept apart here. Marks after values point to notes of the source that are not given here.

What was measured:
[1] = cited from earlier work
[2] = cited from earlier work; remark: listed apart in the source
[3] = test system: OCT1; parameters: method as in PMID 25914645; conditions: read-out: Absolute IC50 for OCT1; cited from earlier work
[4] = biological target: T1, human OCT1 (Homo sapiens, UniProt O15245); test: Inhibition of OCT1-mediated ASP uptake in transduced HEK293 cells; type: cell-based; conditions: 50 µM anti-malarial, 10 µM ASP, 10 min, 37 °C; relative to solvent control fixed at 100%
T1 construct: host or cells: HEK293, baculovirus transduction (CMV promoter), transient
T1 sequence (O15245 1-554): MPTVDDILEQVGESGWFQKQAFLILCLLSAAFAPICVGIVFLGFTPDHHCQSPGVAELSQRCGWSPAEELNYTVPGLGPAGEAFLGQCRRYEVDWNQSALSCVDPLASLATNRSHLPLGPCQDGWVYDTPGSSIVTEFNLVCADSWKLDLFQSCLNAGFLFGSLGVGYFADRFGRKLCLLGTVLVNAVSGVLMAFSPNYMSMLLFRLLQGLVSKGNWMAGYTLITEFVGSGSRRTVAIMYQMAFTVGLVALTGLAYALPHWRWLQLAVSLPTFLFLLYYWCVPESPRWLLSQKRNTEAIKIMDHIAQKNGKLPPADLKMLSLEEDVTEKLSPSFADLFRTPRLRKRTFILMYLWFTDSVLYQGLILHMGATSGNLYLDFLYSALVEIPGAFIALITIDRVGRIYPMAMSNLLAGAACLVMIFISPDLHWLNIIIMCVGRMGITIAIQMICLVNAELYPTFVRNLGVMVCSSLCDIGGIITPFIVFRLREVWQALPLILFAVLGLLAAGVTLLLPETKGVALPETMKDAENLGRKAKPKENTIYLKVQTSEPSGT
Experimental: (§1) HEK293 cells were modified to transiently express (a combination of) human OCT1, OCT2, MATE1, MATE2-K, or eYFP. Briefly, cDNA of the respective genes was cloned downstream of a CMV promoter into a baculovirus, of which passage three was used to transduce HEK293 cells. These cells were seeded in poly-D-lysine coated 24- or 96-wells plates and grown in a 37 °C incubator at 5% CO2. Growth was initiated at ~ 25% confluency using 375 or 125 μL cell and complete medium (DMEM + GlutaMAX™-I supplemented with 10% fetal bovine serum) suspension per well, respectively. After 24 h, cells were transduced with 30 µL virus (10 µL virus + 20 µL complete medium in case of 96-wells plates) or 2 × 15 µL virus for cells that required simultaneous expression of two transporters. Finally, 195 µL sodium butyrate (45 µL for 96-wells plates) was added to a final concentration of 2 mM to enhance protein expression.
AMO (10 mM), ASP (1 mM), CQ (10 mM), PQ (10 mM) and PG (10 mM) were dissolved in MilliQ water. ART (10 mM), ATO (10 mM), DHA (10 mM), LUM (10 mM), MQ (10 mM), NMQ (20 mM), PYR (10 mM), QN (10 mM) were dissolved in DMSO. All compound stocks were stored at − 20 °C. Inhibition of OCT1- or OCT2-mediated ASP uptake by anti-malarials was performed in poly-D-lysine coated 96-wells plates 2 or 3 days following HEK293 cell transduction. In short, cells were washed with 125 µL 37 °C HBSS containing 10 mM HEPES, pH 7.4. Then, a 50 µL mixture of ASP (10 µM) and anti-malarial compound (25, 50 or 100 µM) in HBSS buffer (pH 7.4) was added to each well and incubated for 10 min at 37 °C. ASP transport was stopped by washing with 125 µL ice-cold HBSS-HEPES buffer supplemented with 0.5% BSA. Following a second wash with 125 µL ice-cold HBSS-HEPES buffer, cells were lysed with 125 µL 1 M NaOH and ASP was excited at a wavelength of 485 nm and fluorescence was detected at an emission wavelength of 535 nm using the Victor X3 multimode plate reader.
(§2) For each compound, a range of seven concentrations was used to determine the concentration at which ASP uptake was inhibited half maximally (IC50). At least three independent experiments (4 for QN) were performed for each drug in triplicate as described above. Inhibition curves were plotted by nonlinear regression analyses of the data using GraphPad Prism version 5.03. […] To generate the final dose–response inhibition curve per anti-malarial, percentage of uptake was averaged for each drug concentration per experiment and the resulting mean ± SEM corresponding to three or four independent experiments were plotted.

[5] = biological target: T2, human OCT2 (Homo sapiens, UniProt O15244); test: Inhibition of OCT2-mediated ASP uptake in transduced HEK293 cells; type: cell-based; conditions: 10 µM ASP, 10 min, 37 °C
T2 construct: host or cells: HEK293, baculovirus transduction (CMV promoter), transient
T2 sequence (O15244 1-555): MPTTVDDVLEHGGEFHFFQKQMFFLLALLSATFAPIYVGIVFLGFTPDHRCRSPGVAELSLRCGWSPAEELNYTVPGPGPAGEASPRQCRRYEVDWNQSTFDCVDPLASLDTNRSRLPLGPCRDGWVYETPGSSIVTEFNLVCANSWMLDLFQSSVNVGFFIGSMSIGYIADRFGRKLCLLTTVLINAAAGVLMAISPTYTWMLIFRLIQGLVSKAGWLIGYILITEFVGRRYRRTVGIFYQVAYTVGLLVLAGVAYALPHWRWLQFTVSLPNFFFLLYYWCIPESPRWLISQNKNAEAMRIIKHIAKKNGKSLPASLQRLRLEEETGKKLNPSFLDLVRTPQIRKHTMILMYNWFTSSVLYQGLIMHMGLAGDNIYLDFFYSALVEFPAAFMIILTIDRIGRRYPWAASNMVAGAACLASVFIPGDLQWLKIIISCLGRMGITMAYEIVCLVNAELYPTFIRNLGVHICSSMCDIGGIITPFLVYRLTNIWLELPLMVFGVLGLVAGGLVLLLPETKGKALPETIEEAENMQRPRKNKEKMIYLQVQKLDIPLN
Experimental: as §1, with “Growth was initiated at ~ 25% confluency using 375 or 125 μL cell and complete medium (DMEM + GlutaMAX™-I supplemented with 10% fetal bovine serum) suspension per well, respectively.” left out
AMO (10 mM), ASP (1 mM), CQ (10 mM), PQ (10 mM) and PG (10 mM) were dissolved in MilliQ water. ART (10 mM), ATO (10 mM), DHA (10 mM), LUM (10 mM), MQ (10 mM), NMQ (20 mM), PYR (10 mM), QN (10 mM) were dissolved in DMSO. All compound stocks were stored at − 20 °C. Inhibition of OCT1- or OCT2-mediated ASP uptake by anti-malarials was performed in poly-D-lysine coated 96-wells plates 2 or 3 days following HEK293 cell transduction. In short, cells were washed with 125 µL 37 °C HBSS containing 10 mM HEPES, pH 7.4. […] ASP transport was stopped by washing with 125 µL ice-cold HBSS-HEPES buffer supplemented with 0.5% BSA.
as §2, with “above.” for “above. Inhibition curves were plotted by nonlinear regression analyses of the data using GraphPad Prism version 5.03.”

[6] = Maximum plasma concentration from in vivo pharmacokinetic studies after therapeutic dosing; conditions: human, the literature Cmax (ng/mL) of Table 2 expressed in µM
From the text: As Cmax the (geometric) mean or median maximum plasma concentrations obtained from previous in vivo pharmacokinetic studies after therapeutic dosing was used.

[7] = test system: OCT2; parameters: method as in PMID 20053795; conditions: 50 µM; HeLa cells, metformin as substrate; cited from earlier work
[8] = biological target: T2, human OCT2; parameters: method as in PMID 21544077; conditions: HEK293 cells stably expressing human OCT2; read-out: Ki for OCT2-mediated MET uptake; cited from earlier work
[9] = substrate: [H]/N=C(\N/C(=N/[H])Nc1ccc(Cl)cc1)NC(C)C; test: OCT2-mediated cellular import in transduced HEK293 cells (LC-MS/MS); type: cell-based, human; conditions: other: 1 min incubation, 37 °C, 2.0–16 µM, pH 7.4
Experimental: HEK293 cells were modified to transiently express (a combination of) human OCT1, OCT2, MATE1, MATE2-K, or eYFP. Briefly, cDNA of the respective genes was cloned downstream of a CMV promoter into a baculovirus, of which passage three was used to transduce HEK293 cells. These cells were seeded in poly-D-lysine coated 24- or 96-wells plates and grown in a 37 °C incubator at 5% CO2. Growth was initiated at ~ 25% confluency using 375 or 125 μL cell and complete medium (DMEM + GlutaMAX™-I supplemented with 10% fetal bovine serum) suspension per well, respectively. […]
HEK293 cells were seeded in 24-wells poly-D-lysine coated plates and transduced the subsequent day with OCT1 or OCT2 as described above. […] Following a second wash with 400 µL ice-cold HBSS-HEPES buffer, cells were lysed with 200 µL 50% (v/v) MeOH and 0.1% (v/v) formic acid (HCOOH) in water and samples were sent for quantification by mass spectrometry analysis (see “LC–MS/MS quantification of anti-malarials” section). […]
The affinity (KM) and maximum transport rate (Vmax) for OCT1 and OCT2 of PG were determined by analysing concentration-dependent uptake data from three independent experiments.
Import and export of PG and cycloguanil (CG) was assessed by single and double transduced HEK293 cells. […]

## O=C1Nc2ccc(Cl)cc2[C@@](C#CC2CC2)(C(F)(F)F)O1 [EFV, efavirenz]
[1]
  Maximum plasma concentration: 13 µM
[2]
  Unbound in plasma: about 0.22%
  Unbound maximum plasma concentration: 0.03 µM
[3]
  IC50: 22 µM

## CCc1nc(N)nc(N)c1-c1ccc(Cl)cc1 [Pyrimethamine, pyrimethamine]
[4]
  Relative ASP uptake (OCT1-mediated): 59 ± 6%
[5]; seven concentrations
  IC50: 1.6 µM
[5]; 50 µM anti-malarial, relative to solvent control fixed at 100%
  Relative ASP uptake (OCT2-mediated): 6 ± 2%
[6]
  Cmax: 1.1 µM
[1]; patients with acute falciparum malaria, (geometric) mean or median
  Cmax: 281^e [48] ng/mL
[2]
  Unbound fraction: 0.06 [49]
[7]
  Reduction of OCT2 activity: 60%
[8]
  Ki: 10 µM

B1: human OCT2 (Homo sapiens) (protein)
chain: MPTTVDDVLEHGGEFHFFQKQMFFLLALLSATFAPIYVGIVFLGFTPDHRCRSPGVAELSLRCGWSPAEELNYTVPGPGPAGEASPRQCRRYEVDWNQSTFDCVDPLASLDTNRSRLPLGPCRDGWVYETPGSSIVTEFNLVCANSWMLDLFQSSVNVGFFIGSMSIGYIADRFGRKLCLLTTVLINAAAGVLMAISPTYTWMLIFRLIQGLVSKAGWLIGYILITEFVGRRYRRTVGIFYQVAYTVGLLVLAGVAYALPHWRWLQFTVSLPNFFFLLYYWCIPESPRWLISQNKNAEAMRIIKHIAKKNGKSLPASLQRLRLEEETGKKLNPSFLDLVRTPQIRKHTMILMYNWFTSSVLYQGLIMHMGLAGDNIYLDFFYSALVEFPAAFMIILTIDRIGRRYPWAASNMVAGAACLASVFIPGDLQWLKIIISCLGRMGITMAYEIVCLVNAELYPTFIRNLGVHICSSMCDIGGIITPFLVYRLTNIWLELPLMVFGVLGLVAGGLVLLLPETKGKALPETIEEAENMQRPRKNKEKMIYLQVQKLDIPLN
notes: host or cells: HEK293, baculovirus transduction (CMV promoter), transient
[9]
  Km: 9.0 µM
